Experiment [1] has as its system Z. mobilis. Kind of experiment: overproduction of proteins in Z. mobilis in response to autoinducer (identified by mass spectrometry). It counts as cell-based, Zymomonas mobilis. The following applies: AI-2 produced in vitro with purified enzymes; 2 cytoplasmic and 3 secreted proteins. The source says: […] Nature 437, […]) to avoid the toxic effects of bacteriocin production, it stimulated Z. mobilis to overproduce at least 5 proteins, 2 which were retained in the cytoplasm and 3 that were secreted. These proteins were not produced when Z. mobilis was co-cultured with the luxS-deletion strain KX1128, which lacks the LuxS enzyme that is responsible for the synthesis of 4,5-dihydroxy-2,3-pentanedione (DPD) from S-ribosylhomocysteine, which spontaneously cyclizes to form the autoinducer molecule Autoinducer-2 (AI-2).
The proteins overproduced in response to AI-2 were identified by mass spectrometry sequencing of tryptic-fragments. The first of the secreted proteins, ZMO1147, was identified as a homologue of the E. coli periplasmic chaperone Skp/HIpA (Walton, T A and Sousa M C (2004) Crystal structure of Skp, a prefoldin-like chaperone that protects soluble and membrane proteins from aggregation. Mol Cell. 15, 367-74). […] In E.coli the yaeT and hlpA genes are clustered. In Z. mobilis, ZMO1147 is clearly transcriptionally linked to ZMO1148, a homologue of yaeT, being directly downstream of ZMO1148, so that they share the same promoter. Consequently, both ZMO1147 and ZMO1148 must be induced by AI-2. […] Clearly, ZMO1147 must have a role above and beyond acting as a periplasmic chaperone. […]

Experiment [2] concerns Z. mobilis cells. Kind of experiment: chromate assay for ethanol production by untreated and AI-2-treated Z. mobilis cells. Format: cell-based, Zymomonas mobilis. The source says: The two overproduced cytosolic proteins were identified as enolase, ZMO1608, and pyruvate decarboxylase, ZMO1360 as illustrated in FIG. 2. These are sequential enzymes in the E-D pathway that leads to ethanol production. […] A chromate assay (e.g. 3C2H5OH+4Cr03−>2Cr2O3+3H2O) was used to asses ethanol production, monitoring colour change (e.g. at 600 nm) to determine the ethanol produced.

The record followed here is US8163526B2, “Ethanol production” (The University of Durham, priority 2006, dated 2012).

For Autoinducer-2 [AI-2], the “protein overproduction in Z. mobilis (in words)” value in experiment [1] is “over production of the same five proteins”. Further, the medium ethanol concentration in experiment [2] (AI-2-treated Z. mobilis, untreated 9%, FIG. 3) is given as 14.2%. Besides, in experiment [2] (AI-2-treated vs untreated Z. mobilis cells), the “ethanol production (in words)” value was “significant increase in ethanol production”. In addition, the “increase in ethanol production” value in experiment [2] (AI-2-treated vs untreated Z. mobilis, average of two experiments, chromate assay, colour change at 600 nm) was found to be 54%.
